Results published in article PMC4015918, “Conjugation to a SMAC mimetic potentiates sigma-2 ligand induced tumor cell death in ovarian cancer” (Molecular Cancer, 2014).

How the values were obtained:
sigma-2 receptor = target: T1, sigma-2 receptor (Rattus norvegicus, UniProt Q5U3Y7); experiment: Sigma-2 receptor binding, [3H](+)-DTG displacement in rat liver membrane homogenates
T1 construct: guinea pig brain (sigma-1 assay) or rat liver (sigma-2 assay) membrane homogenates; from tissue; host or cells: rat liver membrane homogenate
T1 sequence (Q5U3Y7 1-176): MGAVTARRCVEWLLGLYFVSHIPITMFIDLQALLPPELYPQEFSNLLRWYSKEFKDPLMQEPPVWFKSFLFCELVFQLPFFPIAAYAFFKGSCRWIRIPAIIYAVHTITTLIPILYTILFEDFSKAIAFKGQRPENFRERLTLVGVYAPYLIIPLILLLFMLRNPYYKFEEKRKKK
Experimental: In order to verify its unaltered target recognition properties, the binding affinity of SW IV-134 to the sigma-2 receptor was determined using previously established methods employing rat liver membrane homogenates (see M&M and Ref [19] for details on receptor binding determinations). […] As another means to probe for the ability of SW IV-134 to bind to the sigma-2 receptor, we performed a competition assay using intact ovarian cancer cells and the fluorescently labeled SW43 homolog SW120 [21].
The sigma-1 and sigma-2 receptor binding affinities of SW IV-134 were determined as previously described. […] Each filter was washed three times with 200 μL of ice-cold wash buffer, and the bound radioactivity quantified using a Wallac 1450 MicroBeta liquid scintillation counter (Perkin Elmer, Boston, MA). Nonspecific binding was determined in the presence of 10 μM cold haloperidol. […]
Table S1. […] The sigma-1 and sigma-2 receptor binding affinities of S W I V-134 were determined as previously described (22). For details see also the Materials and Methods section. a Mean ± S .E .M .K i values were determined by at least three ex periments. b Ki for inhibiting the binding of [ 3H] […]

[1] = Adverse effects after 3 weeks of intraperitoneal treatment: necropsy, complete blood count, serum chemistries; format: in vivo, SCID mice; settings: for Peritonitis at necropsy: also seen in vehicle treated mice
Experimental: In vivo experiments were conducted with 15 mice per treatment group. Treatment involved daily intraperitoneal injections with 90 μL of SW43 (7.5 mM stock), SW IV-134 (7.5 mM stock), or vehicle-only (25% cremophor in H2O) for 3 weeks. Tumor burden was monitored by bioluminescence imaging once a week during the treatment period. At the end of the treatment, 5 mice were randomly removed per treatment group and submitted for necropsy to the Washington University Department of Comparative Medicine. Blood samples were collected by intracardiac withdrawal prior to necropsy for chemistry and hematology work-up. In addition, various key organs were harvested for gross and histopathological examination. The remaining 10 mice from each treatment group were followed over time to examine overall survival. For survival studies, actual death or poor physical condition/large tumor size meeting criteria for euthanasia, constituted a death event.
Supplementary file 1476-4598-13-50-S6.pdf: Additional file 6: Table S2 Complete blood count and serum chemistries for severe combined immunodeficient (SCID) mice treated with SW IV-134, SW43, and vehicle control. SCID mice were treated daily with intra-peritoneal injections of SW IV-134, SW43, and vehicle control for 3 weeks. At the end of treatment, blood was collected from mice in each treatment group and analyzed for hemoglobin, white blood count, and platelets. Serum chemistries were also obtained to determine the levels of liver enzymes aspartate aminotransferase (AST) and alanine aminotransferase (ALT), renally cleared metabolites blood urea nitrogen (BUN) and creatinine, as well as total protein and glucose. The mice treated with SW134 were noted to have a statistically significant decrease in hemoglobin and an increase in white blood count compared to those treated with SW43 or vehicle control. Click here for file […]
Table S2: Complete b l o od count and ser um chemistries f or SCI D mice treated with SW IV-134, SW43, and vehicle. SC ID m ic e were treated daily with intra- peritoneal injections of SW 134, SW 43, and vehicle control fo r 3 weeks. At the end of treatment, bloo d was co lle ct ed from mice in each treatment gro up and analyzed for hemoglobin, w hit e bloo d co un t , and plate lets. S e r um chemistries were also obtained to determine the levels of l iv e r enzymes as pa rt at e aminotransferase ( A ST ) and alanine aminotransferase (ALT), renally cleared metabolites blood urea nitrogen ( BUN) and creatinine, as well as tot al protein a nd gl uco s e. The mice treated w it h SW IV- 134 were no te d to have a statistically significant decrease in hemoglobin and an increase in w hit e bloo d co u nt compared to those treated with SW43 or vehicle control.

[2] = SCID mice, daily i.p. 3 weeks, end of treatment

| SMILES | Ki (sigma-2 receptor) [nM] | ALT, mean [1, 2] [u/L] | BUN, mean [1, 2] [mg/dL] | Creatinine, mean [1, 2] [mg/dL] | Hemoglobin, mean [1, 2] [g/dL] | Total bilirubin, mean [1, 2] [mg/dL] | Total protein, mean [1, 2] [g/dL] | WBC, mean [1, 2] | Peritonitis at necropsy ([1]; i.p. daily for 3 weeks) | AST, mean [1, 2] [u/L] | Glucose, mean [1, 2] [mg/dL] | Platelet, mean [1, 2] | Splenomegaly ([1]; i.p. daily for 3 weeks) |
| --- | --- | --- | --- | --- | --- | --- | --- | --- | --- | --- | --- | --- | --- |
| COc1ccc(C)cc1NC(=O)OC1CC2CCCC(C1)N2CCCCCCCCCCN (stereo not shown) [SW43, reference compound] | 7.1 ± 1.3 | 56.0 | 22.3 | 0.3 | 11.7 | 0.1 | 5.8 | 3.2 103 /µl | mild to moderate peritonitis |  |  |  |  |
| COc1ccc(C)cc1NC(=O)OC1CC2CCCC(C1)N2CCCCCCCCCCN[C@@H](C)C(=O)N[C@H](C(=O)N1CCC[C@H]1C(=O)N[C@@H]1CCCc2ccccc21)C(C)(C)C (stereo partly shown) [SW IV-134] | 22.6 ± 1.8 | 84.0 | 24.8 | 0.4 | 9.5 | 0.1 | 6.0 | 19.3 103 /µl | mild to moderate peritonitis | 91.4 | 103.6 | 1063.8 103 /µl | mild splenomegaly |
